Experimental data taken from ChEMBL document CHEMBL4665638, “Second Generation Inhibitors of HIV-1 Maturation” (ACS Med Chem Lett, 2019).

Assays:
[1] = Binding affinity to HIV-1 CA-SP1 cleavage site of Gag-pol protein harboring deltaV370 mutant assessed as inhibition of HIV-1 maturation; parameters: species or system Human immunodeficiency virus 1
[2] = Binding affinity to wild type HIV-1 NL4-3 CA-SP1 cleavage site of Gag-Pol protein assessed as inhibition of HIV-1 maturation; parameters: species or system Human immunodeficiency virus 1
[3] = Binding affinity to wild type HIV-1 NL4-3 CA-SP1 cleavage site of Gag-Pol protein assessed as inhibition of HIV-1 maturation in presence of human serum albumin; parameters: species or system Human immunodeficiency virus 1
[4] = tested on: Human immunodeficiency virus 1; test: Ratio of EC50 for wild type HIV-1 NL4-3 CA-SP1 cleavage site of Gag-Pol protein in presence of human serum albumin to EC50 for wild type HIV-1 NL4-3 CA-SP1 cleavage site of Gag-Pol protein
[5] = Binding affinity to HIV-1 CA-SP1 cleavage site of Gag-Pol protein harboring V370A mutant assessed as inhibition of HIV-1 maturation; parameters: species or system Human immunodeficiency virus 1
[6] = AUC in rat at 5 mg/kg, po measured for 6 hrs; format: ADME, organism-based; parameters: time 6 hrs, dose 5 mg/kg; settings: in vivo
[7] = Clearance in rat at 5 mg/kg, po or 1 mg/kg, iv; format: ADME, organism-based; settings: in vivo
[8] = Binding affinity to HIV-1 CA-SP1 cleavage site of Gag-Pol protein harboring V370M mutant assessed as inhibition of HIV-1 maturation; parameters: species or system Human immunodeficiency virus 1
[9] = Aqueous solubility of the compound; format: physicochemical
[10] = Binding affinity to HIV-1 CA-SP1 cleavage site of Gag-Pol protein harboring […] mutant assessed as inhibition of HIV-1 maturation; parameters: species or system Human immunodeficiency virus 1
[11] = Binding affinity to HIV-1 CA-SP1 cleavage site of Gag-Pol protein harboring deltaV370/Thr371Ala mutant assessed as inhibition of HIV-1 maturation; parameters: species or system Human immunodeficiency virus 1
[12] = Oral bioavailability in dog; format: ADME, organism-based, Canis lupus familiaris; settings: in vivo
[13] = Volume of distribution at steady state in dog; format: ADME, Canis lupus familiaris; settings: in vivo, read-out: Vdss
[14] = Oral bioavailability in cynomolgus monkey; format: ADME, organism-based, Macaca fascicularis; settings: in vivo
[15] = Binding affinity to HIV-1 CA-SP1 cleavage site of Gag-Pol protein harboring V362I mutant assessed as inhibition of HIV-1 maturation; parameters: species or system Human immunodeficiency virus 1
[16] = Binding affinity to HIV-1 CA-SP1 cleavage site of Gag-Pol protein harboring deltaThr371 mutant assessed as inhibition of HIV-1 maturation; parameters: species or system Human immunodeficiency virus 1
[17] = Clearance in dog; format: ADME, Canis lupus familiaris; settings: in vivo
[18] = Volume of distribution at steady state in cynomolgus monkey; format: ADME, Macaca fascicularis; settings: in vivo, read-out: Vdss
[19] = Binding affinity to HIV-1 CA-SP1 cleavage site of Gag-Pol protein harboring Thr371Ala mutant assessed as inhibition of HIV-1 maturation; parameters: species or system Human immunodeficiency virus 1
[20] = AUC in rat for 6 hrs; format: ADME; parameters: time 6 hrs; settings: in vivo

| SMILES | EC50 [1] [nM] | EC50 [2] [nM] | EC50 [3] [nM] | EC50 [5] [nM] | also measured |
| --- | --- | --- | --- | --- | --- |
| C=C(C)[C@@H]1CC[C@]2(C(=O)NCCN(C)C)CC[C@]3(C)[C@H](CC[C@@H]4[C@@]5(C)CC=C(c6ccc(C(=O)O)cc6)C(C)(C)[C@@H]5CC[C@]43C)[C@@H]12 | 31 | – | – | – | – |
| C=C(C)[C@@H]1CC[C@]2(C(=O)O)CC[C@]3(C)[C@H](CC[C@@H]4[C@@]5(C)CC=C(c6ccc(C(=O)O)cc6Cl)C(C)(C)[C@@H]5CC[C@]43C)[C@@H]12 | – | 114 | 117 | > 4000 | Ratio EC50 [4]: 1 |
| C=C(C)[C@@H]1CC[C@]2(NCCN3CCS(=O)(=O)CC3)CC[C@]3(C)[C@H](CC[C@@H]4[C@@]5(C)CC=C(c6ccc(C(=O)O)c(F)c6)C(C)(C)[C@@H]5CC[C@]43C)[C@@H]12 | 10 | 3 | 13 | – | AUC at 6 h [6]: 25.5 µM·h |
| C=C(C)[C@@H]1CC[C@]2(C(=O)O)CC[C@]3(C)[C@H](CC[C@@H]4[C@@]5(C)CC[C@H](OC(=O)CC(C)(C)C(=O)O)C(C)(C)[C@@H]5CC[C@]43C)[C@@H]12 [BEVIRIMAT] | – | – | – | – | clearance [7]: 4 mL/min/kg; EC50 [8]: 111 nM; solubility [9]: < 1 µg/mL; EC50 [10]: 8 nM; EC50 [11]: > 4000 nM |
| C=C(C)[C@@H]1CC[C@]2(C(=O)NCCC(C)C)CC[C@]3(C)[C@H](CC[C@@H]4[C@@]5(C)CC=C(c6ccc(C(=O)O)cc6)C(C)(C)[C@@H]5CC[C@]43C)[C@@H]12 | 1600 | 47 | – | 101 | – |
| C=C(C)[C@@H]1CC[C@]2(CN(C)CCCN3CCS(=O)(=O)CC3)CC[C@]3(C)[C@H](CC[C@@H]4[C@@]5(C)CC=C(c6ccc(C(=O)O)cc6)C(C)(C)[C@@H]5CC[C@]43C)[C@@H]12 | 26 | – | – | – | AUC ([6]; 6 h): 4.834 µM·h |
| C=C(C)[C@@H]1CC[C@]2(CNCCN3CCS(=O)(=O)CC3)CC[C@]3(C)[C@H](CC[C@@H]4[C@@]5(C)CC=C(c6ccc(C(=O)O)cc6)C(C)(C)[C@@H]5CC[C@]43C)[C@@H]12 | 6 | – | – | – | – |
| C=C(C)[C@@H]1CC[C@]2(C(=O)NCCC(=O)O)CC[C@]3(C)[C@H](CC[C@@H]4[C@@]5(C)CC=C(c6ccc(C(=O)O)cc6)C(C)(C)[C@@H]5CC[C@]43C)[C@@H]12 | > 4000 | 37 | 449 | 427 | – |
| C=C(C)[C@@H]1CC[C@]2(NCCN3CCS(=O)(=O)CC3)CC[C@]3(C)[C@H](CC[C@@H]4[C@@]5(C)CC=C(c6ccc(C(=O)O)cc6)C(C)(C)[C@@H]5CC[C@]43C)[C@@H]12 [BMS-955176] | 13 | – | 10 | 3 | bioavailability [12]: 9%; Vd [13]: 0.43 L/kg; bioavailability [14]: 4%; EC50 [15]: 4 nM; EC50 [16]: 5 nM; clearance [17]: 0.13 mL/min/kg; Vd [18]: 0.36 L/kg; EC50 [8]: 3 nM; solubility [9]: < 1 µg/mL; AUC at 6 h [6]: 14.2 µM·h; EC50 [19]: 3 nM; EC50 [11]: 7 nM |
| C=C(C)[C@@H]1CC[C@]2(CNCCCN3CCS(=O)(=O)CC3)CC[C@]3(C)[C@H](CC[C@@H]4[C@@]5(C)CC=C(c6ccc(C(=O)O)cc6)C(C)(C)[C@@H]5CC[C@]43C)[C@@H]12 | – | – | – | – | AUC at 6 h [6]: 1.71 µM·h |
| C=C(C)[C@@H]1CC[C@]2(C(=O)NCCNC(C)=O)CC[C@]3(C)[C@H](CC[C@@H]4[C@@]5(C)CC=C(c6ccc(C(=O)O)cc6)C(C)(C)[C@@H]5CC[C@]43C)[C@@H]12 | 361 | 5 | 22 | 24 | – |
| C=C(C)[C@@H]1CC[C@]2(C(=O)NCCN3CCS(=O)(=O)CC3)CC[C@]3(C)[C@H](CC[C@@H]4[C@@]5(C)CC=C(c6ccc(C(=O)O)cc6)C(C)(C)[C@@H]5CC[C@]43C)[C@@H]12 | 60 | 2 | – | 6 | AUC at 6 h [6]: 3.99 µM·h |
| C=C(C)[C@@H]1CC[C@]2(C(=O)O)CC[C@]3(C)[C@H](CC[C@@H]4[C@@]5(C)CC=C(c6ccc(C(=O)O)c(C(=O)O)c6)C(C)(C)[C@@H]5CC[C@]43C)[C@@H]12 | – | 38 | – | 212 | – |
| C=C(C)[C@@H]1CC[C@]2(CNCCN(C)C)CC[C@]3(C)[C@H](CC[C@@H]4[C@@]5(C)CC=C(c6ccc(C(=O)O)cc6)C(C)(C)[C@@H]5CC[C@]43C)[C@@H]12 | 21 | – | 9 | – | – |
| C=C(C)[C@@H]1CC[C@]2(C(=O)O)CC[C@]3(C)[C@H](CC[C@@H]4[C@@]5(C)CC=C(c6ccc(C(=O)O)cc6F)C(C)(C)[C@@H]5CC[C@]43C)[C@@H]12 | – | 55 | 50 | 1400 | Ratio EC50 [4]: 1 |
| C=C(C)[C@@H]1CC[C@]2(C(=O)O)CC[C@]3(C)[C@H](CC[C@@H]4[C@@]5(C)CC=C(c6ccc(C(=O)O)cc6C)C(C)(C)[C@@H]5CC[C@]43C)[C@@H]12 | – | 613 | 660 | 3900 | Ratio EC50 [4]: 1 |
| C=C(C)[C@@H]1CC[C@]2(C(=O)O)CC[C@]3(C)[C@H](CC[C@@H]4[C@@]5(C)CC=C(c6ccc(C(=O)O)cc6)C(C)(C)[C@@H]5CC[C@]43C)[C@@H]12 | > 3000 | – | – | – | AUC at 6 h [20]: 5.72 µM·h; clearance [7]: 1 mL/min/kg |
| C=C(C)[C@@H]1CC[C@]2(C(=O)NCCN(CC)CC(=O)O)CC[C@]3(C)[C@H](CC[C@@H]4[C@@]5(C)CC=C(c6ccc(C(=O)O)cc6)C(C)(C)[C@@H]5CC[C@]43C)[C@@H]12 | 64 | 3 | – | 9 | – |
| C=C(C)[C@@H]1CC[C@]2(C(=O)N[C@@H](CN(C)C)C(=O)O)CC[C@]3(C)[C@H](CC[C@@H]4[C@@]5(C)CC=C(c6ccc(C(=O)O)cc6)C(C)(C)[C@@H]5CC[C@]43C)[C@@H]12 | > 160 | 46 | – | 772 | – |
| C=C(C)[C@@H]1CC[C@]2(C(=O)O)CC[C@]3(C)[C@H](CC[C@@H]4[C@@]5(C)CC=C(c6cccc(C(=O)O)c6)C(C)(C)[C@@H]5CC[C@]43C)[C@@H]12 | – | > 8000 | – | – | – |
